Measured values reported in ChEMBL document CHEMBL1142949, “Dicarba analogues of the cyclic enkephalin peptides H-Tyr-c[D-Cys-Gly-Phe-D(or L)-Cys]NH(2) retain high opioid activity” (J Med Chem, 2007).

Key:
[1] = molecular target: Kappa-type opioid receptor (Cavia porcellus, UniProt P41144); test: Displacement of [3H]U-69593 from guinea pig brain kappa opioid receptor
[2] = molecular target: Delta-type opioid receptor (Rattus norvegicus, UniProt P33533); test: Displacement of [3H]DSLET from rat brain delta opioid receptor
[3] = molecular target: Delta-type opioid receptor (Mus musculus, UniProt P32300); test: Agonist activity at delta opioid receptor in mouse vas deferens; type: functional, tissue-based
Mu-type opioid receptor [4] = molecular target: Mu-type opioid receptor (Rattus norvegicus, UniProt P33535); test: Displacement of [3H]DAMGO from rat brain mu opioid receptor
Mu-type opioid receptor [5] = molecular target: Mu-type opioid receptor (Cavia porcellus, UniProt P97266); test: Agonist activity at mu opioid receptor in guinea pig ileum; type: functional, tissue-based
Brain [6] = test: Stability in rat brain membrane after 40 mins assessed as degradation by disulfide reductases; type: ADME, cell membranes
Brain [7] = test: Stability in rat brain membrane upto 24 hrs assessed as degradation by disulfide reductases; type: ADME, cell membranes

Kappa-type opioid receptor, sequence (P41144 whole entry): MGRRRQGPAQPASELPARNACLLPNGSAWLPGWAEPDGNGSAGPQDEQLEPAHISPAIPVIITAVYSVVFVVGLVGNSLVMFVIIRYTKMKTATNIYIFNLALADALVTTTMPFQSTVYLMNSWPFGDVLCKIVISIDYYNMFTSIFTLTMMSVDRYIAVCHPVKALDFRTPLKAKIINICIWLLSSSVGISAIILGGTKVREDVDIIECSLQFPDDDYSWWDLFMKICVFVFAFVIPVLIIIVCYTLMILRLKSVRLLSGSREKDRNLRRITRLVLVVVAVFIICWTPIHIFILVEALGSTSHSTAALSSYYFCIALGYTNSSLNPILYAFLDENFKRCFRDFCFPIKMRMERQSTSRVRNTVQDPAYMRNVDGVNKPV
Mu-type opioid receptor (Rattus norvegicus, UniProt P33535), sequence (P33535 whole entry): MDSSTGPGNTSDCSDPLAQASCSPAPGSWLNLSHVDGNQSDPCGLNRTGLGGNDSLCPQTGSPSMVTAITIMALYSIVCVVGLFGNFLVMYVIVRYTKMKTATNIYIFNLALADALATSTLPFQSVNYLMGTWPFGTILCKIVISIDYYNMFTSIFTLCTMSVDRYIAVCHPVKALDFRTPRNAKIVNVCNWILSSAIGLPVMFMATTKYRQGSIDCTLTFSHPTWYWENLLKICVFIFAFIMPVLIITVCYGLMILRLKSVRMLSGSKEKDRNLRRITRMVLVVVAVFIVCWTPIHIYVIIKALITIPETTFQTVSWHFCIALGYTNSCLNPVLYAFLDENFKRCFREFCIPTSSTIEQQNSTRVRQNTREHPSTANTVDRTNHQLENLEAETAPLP
Delta-type opioid receptor (Mus musculus, UniProt P32300), sequence (P32300 whole entry): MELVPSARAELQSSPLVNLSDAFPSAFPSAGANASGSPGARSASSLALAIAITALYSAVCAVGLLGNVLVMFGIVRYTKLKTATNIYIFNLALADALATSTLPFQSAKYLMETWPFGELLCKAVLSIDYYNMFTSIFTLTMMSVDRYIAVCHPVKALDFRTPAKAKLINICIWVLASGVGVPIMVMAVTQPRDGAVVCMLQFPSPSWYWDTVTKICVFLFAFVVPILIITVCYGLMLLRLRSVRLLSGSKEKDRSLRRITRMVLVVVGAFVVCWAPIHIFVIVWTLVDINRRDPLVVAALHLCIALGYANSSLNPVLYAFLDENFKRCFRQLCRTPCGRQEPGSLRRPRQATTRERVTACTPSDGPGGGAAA
Delta-type opioid receptor (Rattus norvegicus, UniProt P33533), sequence (P33533 whole entry): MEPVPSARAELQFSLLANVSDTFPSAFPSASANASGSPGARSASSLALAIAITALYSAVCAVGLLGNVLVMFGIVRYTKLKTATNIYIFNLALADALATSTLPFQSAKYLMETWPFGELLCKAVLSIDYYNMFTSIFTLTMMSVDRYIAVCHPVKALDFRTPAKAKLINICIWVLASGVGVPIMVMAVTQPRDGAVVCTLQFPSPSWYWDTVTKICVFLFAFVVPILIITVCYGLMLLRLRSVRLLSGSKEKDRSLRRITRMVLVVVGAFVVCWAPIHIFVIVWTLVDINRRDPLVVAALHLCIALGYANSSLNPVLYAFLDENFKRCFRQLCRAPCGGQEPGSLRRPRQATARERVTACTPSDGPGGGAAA
Mu-type opioid receptor (Cavia porcellus, UniProt P97266), sequence (P97266 whole entry): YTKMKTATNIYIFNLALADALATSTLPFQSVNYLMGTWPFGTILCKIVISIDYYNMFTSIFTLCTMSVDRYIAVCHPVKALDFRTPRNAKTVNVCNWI

Structure (SMILES)	Ki [1]	Ki [2]	IC50 [3]	Ki (Mu-type opioid receptor [4])	IC50 (Mu-type opioid receptor [5])	Activity (Brain [6])	Stability (Brain [7])
NC(=O)[C@H]1C/C=C/C[C@@H](NC(=O)[C@@H](N)Cc2ccc(O)cc2)C(=O)NCC(=O)N[C@@H](Cc2ccccc2)C(=O)N1	30.4 nM	1.92 nM	4.38 nM	1.05 nM	5.63 nM		
NC(=O)[C@@H]1C/C=C\C[C@@H](NC(=O)[C@@H](N)Cc2ccc(O)cc2)C(=O)NCC(=O)N[C@@H](Cc2ccccc2)C(=O)N1	200 nM	6.55 nM	0.496 nM	2.4 nM	1.81 nM	Not Active	
NC(=O)[C@H]1CCCC[C@@H](NC(=O)[C@@H](N)Cc2ccc(O)cc2)C(=O)NCC(=O)N[C@@H](Cc2ccccc2)C(=O)N1	71.5 nM	3.34 nM	3.64 nM	1.17 nM	11.2 nM		
NC(=O)[C@@H]1C/C=C/C[C@@H](NC(=O)[C@@H](N)Cc2ccc(O)cc2)C(=O)NCC(=O)N[C@@H](Cc2ccccc2)C(=O)N1	57.6 nM	1.25 nM	0.275 nM	0.616 nM	0.898 nM	Not Active	
NC(=O)[C@@H]1CSSC[C@@H](NC(=O)[C@@H](N)Cc2ccc(O)cc2)C(=O)NCC(=O)N[C@@H](Cc2ccccc2)C(=O)N1	40.1 nM					Not Active	Stable
NC(=O)[C@H]1C/C=C\C[C@@H](NC(=O)[C@@H](N)Cc2ccc(O)cc2)C(=O)NCC(=O)N[C@@H](Cc2ccccc2)C(=O)N1	498 nM	7.04 nM	9.91 nM	2.27 nM	11.9 nM		
NC(=O)[C@@H]1CCCC[C@@H](NC(=O)[C@@H](N)Cc2ccc(O)cc2)C(=O)NCC(=O)N[C@@H](Cc2ccccc2)C(=O)N1	309 nM	5.87 nM	3.19 nM	2.34 nM	1.02 nM	Not Active	
